Test results published in article PMC8333425, “Discovery of a dual Ras and ARF6 inhibitor from a GPCR endocytosis screen” (Nature Communications, 2021).

Columns and labels:
Test in all cases: KINOMEscan kinase binding assay
[1] = target: T1, 384 kinases from the human genome (Homo sapiens, UniProt O00141); details: kinase SGK (Entrez SGK1)
T1 construct: purchased Eurofin/DiscoverX
Text: (§1) We reasoned that because internalizing AT1R and its targeting to intracellular compartments can support continued MAPK signaling, and since 21 inhibits receptor internalization, it should also impede to some extent ERK1/2 activation. […] Receptor-mediated ERK1/2 signaling can involve upstream kinases such as PKC, BRAF, and MEK1[35],[36]. […] To exclude other kinases potentially involved in ERK1/2 and Akt activation as targets of 21, we ran a kinase binding assay (KINOMEscan™) on 384 kinases from the human genome. Remarkably, a very high selectivity score S(10) of 0.008 was found (Supplementary Data 3).
(§2) The chemical library used for initial screening was from Chembridge DiverSet™ (60,000 compounds), Maybridge HitFinder™ (16,000 compounds), Maybridge (selected, 16,000 compounds), SPECS (selected, 16000 compounds), Microsource Discovery Spectrum (2000 compounds), Biomol (natural products, 500 compounds), Prestwick (commercialized products, 1120 compounds), SIGMA LopacTM (1280 compounds) and internal collection (synthesized at Université de Montréal-IRIC, ~4000 compounds). Compounds were all assigned an Université de Montréal number (UM) for internal use. Screen was performed at IRIC HTS facility. KINOMEscan™ profiling was serviced by Eurofin/DiscoverX (San Diego, USA).
(§3) Description of Additional Supplementary Files […]
(§4) File Name: Supplementary Data 3
(§5) Description: KINOMEscan results. Compound 21’s effect was tested on 384 kinases. Data represent kinases binding to their ligands in presence of 10 µM of 21, as compared to DMSO (100%). Results are from one experiment and represent the average of duplicates. Three kinases (FLT3, KIT, and PDGFRB) out of 384 were more than 90% affected (selectivity score S(10) of 0.008). […]

[2] = target: T2, 384 kinases from the human genome (Homo sapiens, UniProt O60331); details: kinase PIP5K1C (Entrez PIP5K1C)
T2 construct: purchased Eurofin/DiscoverX
Text: as §1, §2, §3, §4, §5

[3] = target: T3, 384 kinases from the human genome (Homo sapiens, UniProt O95382); details: kinase ASK2 (Entrez MAP3K6)
T3 construct: purchased Eurofin/DiscoverX
Text: as §1, §2, §3, §4, §5

[4] = target: T4, 384 kinases from the human genome (Homo sapiens, UniProt P06239); details: kinase LCK (Entrez LCK)
T4 construct: purchased Eurofin/DiscoverX
Text: as §1, §2, §3, §4, §5

[5] = target: T5, 384 kinases from the human genome (Homo sapiens, UniProt P0C1S8); details: kinase WEE2 (Entrez WEE2)
T5 construct: purchased Eurofin/DiscoverX
Text: as §1, §2, §3, §4, §5

[6] = target: T6, 384 kinases from the human genome (Homo sapiens, UniProt P27448); details: kinase MARK3 (Entrez MARK3)
T6 construct: purchased Eurofin/DiscoverX
Text: as §1, §2, §3, §4, §5

[7] = target: T7, 384 kinases from the human genome (Homo sapiens, UniProt Q02750); details: kinase MEK1 (Entrez MAP2K1)
T7 construct: purchased Eurofin/DiscoverX
Text: as §1, §2, §3, §4, §5

[8] = target: T8, 384 kinases from the human genome (Homo sapiens, UniProt Q04771); details: kinase ACVR1 (Entrez ACVR1)
T8 construct: purchased Eurofin/DiscoverX
Text: as §1, §2, §3, §4, §5

[9] = target: T9, 384 kinases from the human genome (Homo sapiens, UniProt Q05655); details: kinase PRKCD (Entrez PRKCD)
T9 construct: purchased Eurofin/DiscoverX
Text: as §1, §2, §3, §4, §5

[10] = target: T10, 384 kinases from the human genome (Homo sapiens, UniProt Q13470); details: kinase TNK1 (Entrez TNK1)
T10 construct: purchased Eurofin/DiscoverX
Text: as §1, §2, §3, §4, §5

[11] = target: T11, 384 kinases from the human genome (Homo sapiens, UniProt Q15208); details: kinase NDR1 (Entrez STK38)
T11 construct: purchased Eurofin/DiscoverX
Text: as §1, §2, §3, §4, §5

[12] = target: T12, 384 kinases from the human genome (Homo sapiens, UniProt Q15303); details: kinase ERBB4 (Entrez ERBB4)
T12 construct: purchased Eurofin/DiscoverX
Text: as §1, §2, §3, §4, §5

[13] = target: T13, 384 kinases from the human genome (Homo sapiens, UniProt Q56UN5); details: kinase YSK4 (Entrez MAP3K19)
T13 construct: purchased Eurofin/DiscoverX
Text: as §1, §2, §3, §4, §5

[14] = target: T14, 384 kinases from the human genome (Homo sapiens, UniProt Q86UX6); details: kinase YANK3 (Entrez STK32C)
T14 construct: purchased Eurofin/DiscoverX
Text: as §1, §2, §3, §4, §5

[15] = target: T15, 384 kinases from the human genome (Homo sapiens, UniProt Q8TDR2); details: kinase STK35 (Entrez STK35)
T15 construct: purchased Eurofin/DiscoverX
Text: as §1, §2, §3, §4, §5

[16] = target: T16, 384 kinases from the human genome (Homo sapiens, UniProt Q8WXR4); details: kinase MYO3B (Entrez MYO3B)
T16 construct: purchased Eurofin/DiscoverX
Text: as §1, §2, §3, §4, §5

[17] = target: T17, 384 kinases from the human genome (Homo sapiens, UniProt Q9BXA7); details: kinase TSSK1B (Entrez TSSK1B)
T17 construct: purchased Eurofin/DiscoverX
Text: as §1, §2, §3, §4, §5

[18] = target: T18, 384 kinases from the human genome (Homo sapiens, UniProt Q9BYT3); details: kinase STK33 (Entrez STK33)
T18 construct: purchased Eurofin/DiscoverX
Text: as §1, §2, §3, §4, §5

[19] = target: T19, 384 kinases from the human genome (Homo sapiens, UniProt Q9H4A3); details: kinase WNK1 (Entrez WNK1)
T19 construct: purchased Eurofin/DiscoverX
Text: as §1, §2, §3, §4, §5

[20] = target: T20, 384 kinases from the human genome (Homo sapiens, UniProt Q9P1W9); details: kinase PIM2 (Entrez PIM2)
T20 construct: purchased Eurofin/DiscoverX
Text: as §1, §2, §3, §4, §5

[21] = target: T21, 384 kinases from the human genome (Homo sapiens, UniProt Q9P286); details: kinase PAK7 (Entrez PAK7)
T21 construct: purchased Eurofin/DiscoverX
Text: as §1, §2, §3, §4, §5

[22] = target: T22, 384 kinases from the human genome (Homo sapiens, UniProt Q9UIK4); details: kinase DAPK2 (Entrez DAPK2)
T22 construct: purchased Eurofin/DiscoverX
Text: as §1, §2, §3, §4, §5

[23] = target: T23, 384 kinases from the human genome (Homo sapiens, UniProt Q9Y2H1); details: kinase NDR2 (Entrez STK38L)
T23 construct: purchased Eurofin/DiscoverX
Text: as §1, §2, §3, §4, §5

[24] = target: T24, 384 kinases from the human genome (Homo sapiens, UniProt Q9Y2K2); details: kinase QSK (Entrez KIAA0999)
T24 construct: purchased Eurofin/DiscoverX
Text: as §1, §2, §3, §4, §5

[25] = target: T25, 384 kinases from the human genome (Homo sapiens, UniProt Q9Y5S2); details: kinase MRCKB (Entrez CDC42BPB)
T25 construct: purchased Eurofin/DiscoverX
Text: as §1, §2, §3, §4, §5

[26] = target: T26, 384 kinases from the human genome (Homo sapiens, UniProt Q9Y6R4); details: kinase MAP3K4 (Entrez MAP3K4)
T26 construct: purchased Eurofin/DiscoverX
Text: as §1, §2, §3, §4, §5

T12 sequence (Q15303 26-1308): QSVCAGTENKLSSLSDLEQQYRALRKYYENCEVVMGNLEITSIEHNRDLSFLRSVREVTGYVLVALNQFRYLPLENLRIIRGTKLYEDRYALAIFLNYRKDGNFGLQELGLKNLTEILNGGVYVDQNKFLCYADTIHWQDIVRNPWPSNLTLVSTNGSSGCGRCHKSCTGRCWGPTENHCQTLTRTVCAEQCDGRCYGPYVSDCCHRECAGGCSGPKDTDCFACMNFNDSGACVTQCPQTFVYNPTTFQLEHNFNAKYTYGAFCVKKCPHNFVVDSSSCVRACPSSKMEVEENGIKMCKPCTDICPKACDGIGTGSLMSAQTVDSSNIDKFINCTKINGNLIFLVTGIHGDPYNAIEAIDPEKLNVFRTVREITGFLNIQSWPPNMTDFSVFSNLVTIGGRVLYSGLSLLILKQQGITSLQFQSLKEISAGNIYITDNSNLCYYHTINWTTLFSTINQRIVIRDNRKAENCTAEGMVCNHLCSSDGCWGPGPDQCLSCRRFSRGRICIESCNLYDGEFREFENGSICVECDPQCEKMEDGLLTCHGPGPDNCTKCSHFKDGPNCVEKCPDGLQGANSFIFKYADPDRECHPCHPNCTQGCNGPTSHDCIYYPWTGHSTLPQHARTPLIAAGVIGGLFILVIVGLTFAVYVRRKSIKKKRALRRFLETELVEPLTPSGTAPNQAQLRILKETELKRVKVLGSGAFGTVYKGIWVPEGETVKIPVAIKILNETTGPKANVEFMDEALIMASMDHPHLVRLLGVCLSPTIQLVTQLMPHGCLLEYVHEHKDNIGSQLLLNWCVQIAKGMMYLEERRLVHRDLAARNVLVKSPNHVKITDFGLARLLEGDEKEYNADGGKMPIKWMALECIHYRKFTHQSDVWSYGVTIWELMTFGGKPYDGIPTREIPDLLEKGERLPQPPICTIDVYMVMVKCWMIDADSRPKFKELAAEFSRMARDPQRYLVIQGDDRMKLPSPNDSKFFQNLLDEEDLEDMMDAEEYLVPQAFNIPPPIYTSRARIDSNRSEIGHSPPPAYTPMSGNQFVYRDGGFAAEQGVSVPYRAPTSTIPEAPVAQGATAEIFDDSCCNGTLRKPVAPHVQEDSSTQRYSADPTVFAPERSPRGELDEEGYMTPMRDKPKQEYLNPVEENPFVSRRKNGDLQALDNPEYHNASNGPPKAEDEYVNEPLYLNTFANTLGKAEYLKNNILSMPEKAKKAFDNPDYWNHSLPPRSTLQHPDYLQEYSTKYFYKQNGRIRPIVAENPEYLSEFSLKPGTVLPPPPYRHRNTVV
T21 sequence (Q9P286 whole entry): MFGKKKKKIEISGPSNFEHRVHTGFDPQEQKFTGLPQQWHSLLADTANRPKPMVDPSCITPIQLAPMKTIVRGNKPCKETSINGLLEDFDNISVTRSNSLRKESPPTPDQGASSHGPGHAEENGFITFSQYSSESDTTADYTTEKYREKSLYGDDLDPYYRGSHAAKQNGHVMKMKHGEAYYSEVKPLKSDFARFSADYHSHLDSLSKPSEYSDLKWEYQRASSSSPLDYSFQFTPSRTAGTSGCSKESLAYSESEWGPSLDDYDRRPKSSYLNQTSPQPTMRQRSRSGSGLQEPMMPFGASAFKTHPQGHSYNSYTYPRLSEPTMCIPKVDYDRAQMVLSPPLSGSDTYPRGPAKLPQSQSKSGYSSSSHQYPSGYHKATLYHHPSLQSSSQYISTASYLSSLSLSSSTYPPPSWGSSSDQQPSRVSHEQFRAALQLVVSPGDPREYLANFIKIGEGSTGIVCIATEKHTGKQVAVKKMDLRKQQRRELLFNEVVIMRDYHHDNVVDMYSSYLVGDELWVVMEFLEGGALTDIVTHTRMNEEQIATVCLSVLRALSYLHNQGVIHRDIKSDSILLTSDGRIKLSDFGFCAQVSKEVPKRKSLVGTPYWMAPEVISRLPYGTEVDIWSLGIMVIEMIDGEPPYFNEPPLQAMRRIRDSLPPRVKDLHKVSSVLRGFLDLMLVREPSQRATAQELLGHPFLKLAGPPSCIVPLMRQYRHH
T2 sequence (O60331 whole entry): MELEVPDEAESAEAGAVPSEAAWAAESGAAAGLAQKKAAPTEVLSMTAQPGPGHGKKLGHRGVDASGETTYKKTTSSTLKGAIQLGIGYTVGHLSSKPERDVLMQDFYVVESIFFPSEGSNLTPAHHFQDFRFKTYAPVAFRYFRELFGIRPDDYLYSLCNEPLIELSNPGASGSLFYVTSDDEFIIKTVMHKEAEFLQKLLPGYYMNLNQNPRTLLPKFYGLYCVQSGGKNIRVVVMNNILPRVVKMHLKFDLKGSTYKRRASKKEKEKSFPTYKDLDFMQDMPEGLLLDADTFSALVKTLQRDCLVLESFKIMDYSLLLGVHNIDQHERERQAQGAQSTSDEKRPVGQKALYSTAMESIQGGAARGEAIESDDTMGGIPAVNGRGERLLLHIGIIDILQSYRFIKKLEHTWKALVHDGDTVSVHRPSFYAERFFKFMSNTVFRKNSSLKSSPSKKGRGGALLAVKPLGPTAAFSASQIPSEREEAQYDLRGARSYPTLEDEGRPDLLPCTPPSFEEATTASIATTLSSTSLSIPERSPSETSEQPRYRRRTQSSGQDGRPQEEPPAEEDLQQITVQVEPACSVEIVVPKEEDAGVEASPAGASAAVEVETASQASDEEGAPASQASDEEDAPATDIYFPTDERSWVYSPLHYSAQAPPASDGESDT
T3 sequence (O95382 whole entry): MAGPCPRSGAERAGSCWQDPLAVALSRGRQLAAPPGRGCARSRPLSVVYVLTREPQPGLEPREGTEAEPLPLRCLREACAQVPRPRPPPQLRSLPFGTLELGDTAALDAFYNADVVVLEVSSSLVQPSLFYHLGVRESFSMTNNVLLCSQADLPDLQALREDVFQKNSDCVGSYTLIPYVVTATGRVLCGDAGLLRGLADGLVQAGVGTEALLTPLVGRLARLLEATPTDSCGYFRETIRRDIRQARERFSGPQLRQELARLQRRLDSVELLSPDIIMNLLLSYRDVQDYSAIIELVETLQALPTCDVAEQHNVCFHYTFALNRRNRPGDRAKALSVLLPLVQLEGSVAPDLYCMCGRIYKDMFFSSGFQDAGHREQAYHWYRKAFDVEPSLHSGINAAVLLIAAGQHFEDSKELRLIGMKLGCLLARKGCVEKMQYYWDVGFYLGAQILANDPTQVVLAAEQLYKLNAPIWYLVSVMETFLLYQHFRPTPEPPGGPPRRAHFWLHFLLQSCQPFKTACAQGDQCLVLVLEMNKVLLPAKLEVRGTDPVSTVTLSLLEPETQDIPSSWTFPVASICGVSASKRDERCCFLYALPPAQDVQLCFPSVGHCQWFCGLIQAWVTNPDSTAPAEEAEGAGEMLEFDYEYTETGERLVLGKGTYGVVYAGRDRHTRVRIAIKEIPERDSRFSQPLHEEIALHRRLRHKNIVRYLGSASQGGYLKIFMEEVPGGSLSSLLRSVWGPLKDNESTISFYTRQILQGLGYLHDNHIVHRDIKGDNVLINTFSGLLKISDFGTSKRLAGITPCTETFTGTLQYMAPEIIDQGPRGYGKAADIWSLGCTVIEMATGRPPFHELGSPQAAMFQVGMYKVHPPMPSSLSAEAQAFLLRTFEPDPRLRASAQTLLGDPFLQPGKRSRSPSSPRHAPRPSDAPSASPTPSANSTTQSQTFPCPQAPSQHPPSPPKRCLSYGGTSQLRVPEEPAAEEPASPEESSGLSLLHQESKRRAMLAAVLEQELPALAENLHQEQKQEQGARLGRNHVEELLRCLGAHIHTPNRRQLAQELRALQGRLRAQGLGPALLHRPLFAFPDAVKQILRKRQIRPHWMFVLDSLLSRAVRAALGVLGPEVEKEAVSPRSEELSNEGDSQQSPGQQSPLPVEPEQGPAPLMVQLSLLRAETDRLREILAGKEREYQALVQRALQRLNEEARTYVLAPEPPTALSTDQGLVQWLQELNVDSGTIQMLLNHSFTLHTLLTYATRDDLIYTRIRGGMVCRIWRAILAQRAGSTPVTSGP
T6 sequence (P27448 whole entry): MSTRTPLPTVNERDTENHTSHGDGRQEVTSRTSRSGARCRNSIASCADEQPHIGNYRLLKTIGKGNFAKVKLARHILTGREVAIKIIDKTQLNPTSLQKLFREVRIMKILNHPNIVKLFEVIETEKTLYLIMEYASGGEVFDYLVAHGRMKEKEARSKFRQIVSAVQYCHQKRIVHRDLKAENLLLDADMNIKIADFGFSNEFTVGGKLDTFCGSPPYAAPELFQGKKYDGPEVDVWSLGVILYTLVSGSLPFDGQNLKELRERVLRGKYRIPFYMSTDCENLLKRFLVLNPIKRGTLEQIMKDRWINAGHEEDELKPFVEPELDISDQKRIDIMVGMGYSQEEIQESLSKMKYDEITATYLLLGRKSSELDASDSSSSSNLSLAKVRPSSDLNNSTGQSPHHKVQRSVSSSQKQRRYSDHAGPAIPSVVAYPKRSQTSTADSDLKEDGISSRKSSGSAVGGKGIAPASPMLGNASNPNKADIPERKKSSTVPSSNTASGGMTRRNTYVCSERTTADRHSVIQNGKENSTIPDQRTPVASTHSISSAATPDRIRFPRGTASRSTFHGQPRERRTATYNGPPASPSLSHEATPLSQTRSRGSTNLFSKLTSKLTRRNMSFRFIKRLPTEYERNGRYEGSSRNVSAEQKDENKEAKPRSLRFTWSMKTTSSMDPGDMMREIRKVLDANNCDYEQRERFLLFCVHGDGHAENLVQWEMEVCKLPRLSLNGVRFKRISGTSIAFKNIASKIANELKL
T20 sequence (Q9P1W9 whole entry): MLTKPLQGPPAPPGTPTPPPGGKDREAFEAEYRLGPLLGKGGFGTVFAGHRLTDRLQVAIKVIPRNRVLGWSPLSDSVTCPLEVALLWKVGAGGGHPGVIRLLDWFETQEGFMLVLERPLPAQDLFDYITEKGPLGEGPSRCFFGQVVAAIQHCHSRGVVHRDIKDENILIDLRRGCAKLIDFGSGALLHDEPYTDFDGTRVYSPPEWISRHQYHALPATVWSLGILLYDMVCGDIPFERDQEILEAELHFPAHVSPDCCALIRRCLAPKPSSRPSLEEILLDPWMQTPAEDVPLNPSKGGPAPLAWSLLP

Compound: CC(C)C(=O)N1CCN(c2ccc(NC(=O)c3cc4ccccc4o3)cc2Cl)CC1 [Compound 21]
- Percent Control [1]: 100%
- Percent Control [2]: 100%
- Percent Control [3]: 100%
- Percent Control [4]: 97%
- Percent Control [5]: 100%
- Percent Control [6]: 100%
- Percent Control [7]: 76%
- Percent Control [8]: 70%
- Percent Control [9]: 100%
- Percent Control [10]: 75%
- Percent Control [11]: 91%
- Percent Control [12]: 91%
- Percent Control [13]: 98%
- Percent Control [14]: 100%
- Percent Control [15]: 100%
- Percent Control [16]: 58%
- Percent Control [17]: 100%
- Percent Control [18]: 100%
- Percent Control [19]: 94%
- Percent Control [20]: 100%
- Percent Control [21]: 85%
- Percent Control [22]: 100%
- Percent Control [23]: 77%
- Percent Control [24]: 100%
- Percent Control [25]: 94%
- Percent Control [26]: 73%
